According to patent US8691210B2, “Methods and compositions for generating an immune response by inducing CD40 and pattern recognition receptors and adaptors thereof” (priority 2006, dated 2014):

Legend:
[1] = test system: BMDCs; assay: In vitro serum-starvation DC survival assay (propidium iodide); format: cell-based, murine; conditions: relative to non-transduced DCs treated with CD40L or untreated BMDCs
Text: In addition to DC activation state, DC longevity is another critical variable that influences the generation of T cell-dependent immunity. In fact, CTL-mediated killing of DCs is considered to be a significant mechanism for modulating immune responses while protecting the host from autoimmune pathologies^55,56. Other work has established that CD40 stimulation of DCs prolongs their survival by a variety of mechanisms, including upregulation of the anti-apoptotic protein bcl-XL and the granzyme B inhibitor, Spi-6^57,58. The effects of iCD40 relative to CD40L on DC survival were compared in an in vitro serum-starvation culture assay (FIG. 11E).

[2] = test system: human DCs; assay: Cytokine (IL-12p70, IL-6) ELISA of human DC culture supernatants; format: cell-based; conditions: iCD40-DCs stimulated with the named TLR ligand
Description: Approximately 2×10^6 cells/ml were cultured in a 24-well dish and transduced with adenoviruses at 10,000 viral particle (vp)/cell (−160 MOI) for 90 min at 37° C. and 5% CO2. Immediately after transduction DCs were stimulated with MPL, FSL-1, Pam3CSK4 (InvivoGen, San Diego, Calif.), LPS (Sigma-Aldrich, St. Louis, Mo.), AP20187 (kind gift from ARIAD Pharmaceuticals, Cambridge, Mass.) or maturation cocktail (MC), containing 10 ng/ml TNF-alpha, 10 ng/ml IL-1beta, 150 ng/ml IL-6 (R&D Systems, Minneapolis, Minn.) and 1 micrograms/ml of PGE2 (Cayman Chemicals, Ann Arbor, Mich.). In T cell assays DCs were pulsed with 50 micrograms/ml of PSMA or MAGE 3 peptide 24 hours before and after adenoviral transduction.
Cell surface staining was done with fluorochrome-conjugated monoclonal antibodies (BD Biosciences, San Diego, Calif.). Cells were analyzed on a FACSCalibur cytometer (BD Biosciences, San Jose, Calif.). Cytokines were measured in culture supernatants using enzyme-linked immunosorbent assay kits for human IL-6 and IL-12p70 (BD Biosciences).

[3] = test system: human SOCS1; assay: Real time Q-PCR assay for human SOCS1 in DCs; format: cell-based
Text: Total RNA was purified and reverse transcribed with random hexamers using SuperScript II RTase (Invitrogen, Carlsbad, Calif.). mRNA levels were quantified in DCs by subjecting cDNA to TaqMan PCR analysis using the GeneAmp 5700 Sequence Detection System (Applied Biosystems, Foster City, Calif.). Pre-developed sequence detection reagents (Applied Biosystems) specific for human SOCS1 and 18S rRNA, including forward and reverse primers as well as a fluorogenic TaqMan FAM-labeled hybridization probe, were supplied as mixtures and were used at 1 microliter/20 microliter PCR. Samples were run in duplicates. The level of SOCS1 expression in each sample was normalized to the level of 18S rRNA from the same sample using the comparative 2-ΔΔCT method^21.

[4] = test system: BMDCs; assay: BMDC survival (GM-CSF deprivation, wortmannin); format: cell-based
Description: To further test the hypothesis that PI3K and Akt are common regulators for innate and acquired immune signal-mediated DC survival, various concentrations (0.05-5 μM) of PI3K inhibitor, wortmannin, in BMDCs treated with LPS or anti-CD40 were tested.
To more directly investigate the role of Akt in PI3K-mediated DC survival, a previously described constitutively active Akt (M-Akt) allele, consisting of full length Akt, targeted to intracellular membranes with a myristoylation-targeting sequence from c-Src^62 was used. […] Therefore, to test the possibility that the efficient lipid raft localization of Akt improve its functions, this construct was compared with several distinct deregulated Akt alleles, containing myristoylation-targeting sequences from Src family kinases Src, Fyn and Lck fused to AAkt. The pleckstrin homology (PH) domain (residues 1-102) was removed to further improve Akt activity when PI3K is limiting^64. […] Therefore, MF-ΔAkt was used in subsequent experiments. Moreover, for improved expression in BMDCs, replication-defective adenovirus, Ad-MF-ΔAkt, expressing functionally optimized Akt was generated. Consistently, Ad-MF-ΔAkt led to higher GSK3α/β phosphorylation in BMDCs, compared with Ad-M-Akt^62. […] Thus, functionally optimized Akt almost completely suppresses induction of DC death by PI3K (but not Src) inhibition. […]

[5] = test system: primary bone marrow-derived DCs (BMDCs); assay: iCD40 functionality in primary BMDCs (surface markers, intracellular IL-12 staining); format: cell-based, murine; conditions: stimulation with LPS and CD40L
Text: A helper-dependent, […] adenoviral vector, named Ad-iCD40-GFP, was engineered to express both iCD40 and EGFP under the control of the CMV early/immediate promoter/enhancer. Ad-iCD40-GFP successfully transduced and expressed the iCD40 transgene, as well as the EGFP marker, in purified BMDCs (FIG. 11A,B). […] The effects of Ad-iCD40-GFP on BMDCs using intracellular cytokine staining to evaluate DC expression of the TH1-polarizing cytokine, IL-12 was then investigated. These findings confirmed numerous previous reports that an empty adenoviral vector can contribute to background fluorescence readings by stimulating the production of low levels of this cytokine. (FIG. 11D)^53. […] However, AP20187 exposure of these iCD40-expressing DCs managed to reproducibly overcome these cumulative effects to further increase the percentage of IL-12′ DCs.

[6] = test system: Naive CD4+CD45RA+ T cells; assay: Polarization of naive T helper cells; format: cell-based, human; conditions: tetanus toxoid-pulsed DCs, restimulation with TTp30
Text: Naïve CD4+CD45RA+ T-cells from HLA-DR11.5-positive donors (genotyped using FASTYPE HLA-DNA SSP typing kit; BioSynthesis, Lewisville, Tex.) were isolated by negative selection using naïve CD4+ T cell isolation kit (Miltenyi Biotec, Auburn, Calif.). T cells were stimulated with autologous DCs pulsed with tetanus toxoid (5 FU/ml) and stimulated with various stimuli at a stimulator to responder ratio of 1:10. After 7 days, T cells were restimulated with autologous DCs pulsed with the HLA-DR11.5-restricted helper peptide TTp30 and transduced with adenovector Ad-iCD40. Cells were stained with PE-anti-CD4 Ab (BD Biosciences), fixed and permeabilized using BD Cytofix/Cytoperm kit (BD Biosciences), then stained with hIFN-gamma mAb (eBioscience, San Diego, Calif.) and analyzed by flow cytometry. Supernatants were analyzed using human TH1/TH2 BD Cytometric Bead Array Flex Set on BD FACSArray Bioanalyzer (BD Biosciences).

Molecule: CC[C@H](C(=O)N1CCCC[C@H]1C(=O)O[C@H](CCc1ccc(OC)c(OC)c1)c1cccc(OCC(=O)NCC(CNC(=O)COc2cccc([C@@H](CCc3ccc(OC)c(OC)c3)OC(=O)[C@@H]3CCCCN3C(=O)[C@@H](CC)c3cc(OC)c(OC)c(OC)c3)c2)CN(C)C)c1)c1cc(OC)c(OC)c(OC)c1 [AP20187]
- DC longevity [1]: even further enhanced this survival effect

Molecule: FSL-1
- IL12-p70 induced by TLR ligand in iCD40-DCs [2]: only low levels

Molecule: Lipopolysaccharide [LPS]
- SOCS1 induction [3]: up-regulated SOCS1 expression
- Protection against GM-CSF deprivation-mediated DC death [4]: protect against GM-CSF deprivation-mediated DC death
- IL12-p70 induced by TLR ligand in iCD40-DCs [2]: synergized with CD40 signaling
- Time of peak IL-12p70/p40 synthesis [5]: 8 h

Molecule: Pam3 CSK4
- IL12-p70 induced by TLR ligand in iCD40-DCs [2]: only low levels

Molecule: monophosphoryl lipid A [MPL]
- IFN-gamma production in CD4+ T cells [6]: not induced
- IL12-p70 induced by TLR ligand in iCD40-DCs [2]: synergized with CD40 signaling

B1: CD40L: CD40 ligand (Alexis Biochemicals) (protein)
chain: GDQNPQIAAHVISEASSKTTSVLQWAEKGYYTMSNNLVTLENGKQLTVKRQGLYYIYAQVTFCSNREASSQAPFIASLCLKSPGRFERILLRAANTHSSAKPCGQQSIHLGGVFELQPGASVFVNVTDPSQVSHGTGFTSFGLLKL
- Time of peak IL-12p70/p40 synthesis [5]: 8 h
